{"source": "patent US20200163984A1", "about": "“USE OF ISOVALERYL SPIRAMYCIN I, II AND/OR III IN MANUFACTURING MEDICAMENT FOR TREATING AND/OR PREVENTING TUMOR, AND MEDICAMENT” (SHENYANG FUYANG PHARMACEUTICAL TECHNOLOGY CO., LTD., priority 2017, published 2020)", "key": {"[1]": {"test_system": "transplanted tumor of human breast cancer cell MDA-MB-231", "test": "MDA-MB-231 transplanted tumor in nude mice", "settings": "MDA-MB-231; 30 mg/kg i.g. 30 days", "experimental": "(§1) Then cell concentration was adjusted to 1×10^7/ml with matrigel, then each nude mouse was inoculated subcutaneously with 0.2 ml of cells at its right armpit and recorded as the first day of inoculation. When the tumor grows to be greater than or equal to 100 mm^3, the mice were randomly divided into 11 groups with 6 mice in each group: a model group, a cyclophosphamide group, isovaleryl spiramycin I groups with doses of 25, 50 and 100 mg/kg, isovaleryl spiramycin II groups with doses of 25, 50 and 100 mg/kg, and isovaleryl spiramycin III groups with doses of 25, 50 and 100 mg/kg. Each group was continuously administered intragastrically for 30 days with a dose of 20 ml/kg. The mice were sacrificed the next day after drug withdrawal and the indicators were tested. The long diameter and short diameter of the tumor, and the body weight of each mouse were recorded every 3 days from drug administration to nude mouse sacrifice.\n(§2) The body weight of the nude mice and the long diameter (a) and short diameter (b) of the transplanted tumor were measured every 3 days, and the tumor volume (v), relative tumor volume (RTV) and relative tumor proliferation rate (T/C) are calculated respectively according to the following formulas, wherein V=a×b^2/2; RTV=V/V0 (V0 is the tumor volume before administration, V is the tumor volume before sacrifice), and T/C (%)=treatment group RTV/model control group RTV×100%.\n(§3) Each mouse was weighed and sacrificed. After the tumor was completely stripped off from the body of the mouse, the non-tumor tissues such as blood stains and fat were removed to weigh the tumor and calculate the tumor growth inhibition rate. The average tumor weight of each group of mice is used as an indicator of efficacy. Tumor growth inhibition rate (%)=(1−the average tumor weight of the treatment group/the average tumor weight of the model group)×100%."}, "[2]": {"test_system": "transplanted tumor of human large cell lung cancer H460 cells", "test": "H460 transplanted tumor in nude mice", "settings": "H460; 30 mg/kg i.g. 30 days", "experimental": "as §1, with “group:” for “group: a model group, a cyclophosphamide group,”\nas §2, §3"}, "[3]": {"test": "Thymus index and spleen index of Lewis lung cancer tumor-bearing mice", "experimental": "In the Lewis lung cancer model, the mice inoculated with the tumor were randomly divided into groups with 10 mice in each group the next day of inoculation. The groups included: a model control group, a positive drug cyclophosphamide control group (CTX, 30 mg/kg), isovaleryl spiramycin I groups with doses of 13, 26 and 52 mg/kg; isovaleryl spiramycin II groups with doses of 13, 26 and 52 mg/kg; isovaleryl spiramycin III groups with doses of 13, 26 and 52 mg/kg. Each group was continuously administered intragastrically for 15 days with a dose of 20 ml/kg."}, "[4]": {"test_system": "transplanted tumor of human hepatoma cell HepG-2", "test": "HepG-2 transplanted tumor in nude mice", "settings": "HepG-2 nude mice, 30 mg/kg", "experimental": "as §1, §2, §3"}, "[5]": {"test_system": "transplanted tumor of human thyroid cancer cell TPC-1", "test": "TPC-1 transplanted tumor in nude mice", "settings": "dose 30 mg/kg", "experimental": "as §1, with “group:” for “group: a model group, a cyclophosphamide group,”\nas §2, §3"}}, "data": [{"smiles": "O=P1(N(CCCl)CCCl)NCCCO1", "note": "(centres unmarked) [Cyclophosphamide, cyclophosphamide, reference compound]", "values": [{"measurement": "Body Weight (d 1)", "setting": "[1]", "value": "21.65 ± 1.50", "unit": "g"}, {"measurement": "Body Weight (d 30)", "setting": "[1]", "value": "19.26 ± 1.49", "unit": "g"}, {"measurement": "Inhibition Rate (tumor growth inhibition rate)", "setting": "[1]", "value": 70.54, "unit": "%"}, {"measurement": "Relative Tumor Proliferation Rate (T/C)", "setting": "[1]", "value": 37.73, "unit": "%"}, {"measurement": "Relative Tumor Volume (RTV)", "setting": "[1]", "value": "5.89 ± 2.84"}, {"measurement": "Tumor Volume (d 1)", "setting": "[1]", "value": "116.90 ± 7.18", "unit": "mm3"}, {"measurement": "Tumor Volume (d 30)", "setting": "[1]", "value": "691.84 ± 337.21", "unit": "mm3"}, {"measurement": "Tumor Weight", "setting": "[1]", "value": "0.38 ± 0.27", "unit": "g"}, {"measurement": "Body Weight (d 1)", "setting": "[2]", "value": "20.46 ± 0.54", "unit": "g"}, {"measurement": "Body Weight (d 30)", "setting": "[2]", "value": "21.20 ± 0.75", "unit": "g"}, {"measurement": "Inhibition Rate (tumor growth inhibition rate)", "setting": "[2]", "value": 71.08, "unit": "%"}, {"measurement": "Relative Tumor Proliferation Rate (T/C)", "setting": "[2]", "value": 30.86, "unit": "%"}, {"measurement": "Relative Tumor Volume (RTV)", "setting": "[2]", "value": "3.24 ± 0.99"}, {"measurement": "Tumor Volume (d 1)", "setting": "[2]", "value": "146.98 ± 27.55", "unit": "mm3"}, {"measurement": "Tumor Volume (d 30)", "setting": "[2]", "value": "468.49 ± 128.57", "unit": "mm3"}, {"measurement": "Tumor Weight", "setting": "[2]", "value": "0.50 ± 0.06", "unit": "g"}, {"measurement": "spleen index compared with the control group", "setting": "[3]; Lewis tumor-bearing mice, cyclophosphamide, P<0.01", "value": "significantly lower"}, {"measurement": "Spleen Index (%)", "setting": "[3]; dose 26 mg/kg, n = 6", "value": "0.48 ± 0.09", "unit": "%"}, {"measurement": "Thymus Index (%)", "setting": "[3]; dose 26 mg/kg, n = 6", "value": "0.06 ± 0.02", "unit": "%"}, {"measurement": "Inhibition Rate (%)", "setting": "[4]", "value": 71.04, "unit": "%"}, {"measurement": "Relative Tumor Proliferation Rate (T/C)", "setting": "[4]", "value": 39.27, "unit": "%"}, {"measurement": "Relative Tumor Volume (RTV)", "setting": "[4]", "value": "6.58 ± 2.18"}, {"measurement": "Tumor Weight", "setting": "[4]", "value": "0.07 ± 0.38", "unit": "g"}, {"measurement": "Body Weight (g) (d1)", "setting": "[4]; d1", "value": "21.89 ± 1.84", "unit": "g"}, {"measurement": "Tumor Volume (mm3) (d 1)", "setting": "[4]; d1", "value": "119.66 ± 7.65", "unit": "mm3"}, {"measurement": "Body Weight (g) (d30)", "setting": "[4]; d30", "value": "19.67 ± 1.49", "unit": "g"}, {"measurement": "Tumor Volume (mm3) (d30)", "setting": "[4]; d30", "value": "792.56 ± 287.31", "unit": "mm3"}, {"measurement": "Inhibition Rate (%)", "setting": "[5]", "value": 71.29, "unit": "%"}, {"measurement": "Relative Tumor Proliferation Rate (T/C)", "setting": "[5]", "value": 37.40, "unit": "%"}, {"measurement": "Relative Tumor Volume (RTV)", "setting": "[5]", "value": "6.16 ± 2.29"}, {"measurement": "Tumor Weight", "setting": "[5]", "value": "0.69 ± 0.37", "unit": "g"}, {"measurement": "Body Weight (g) (d1)", "setting": "[5]; d 1", "value": "21.56 ± 1.54", "unit": "g"}, {"measurement": "Tumor Volume (mm3) (d 1)", "setting": "[5]; d 1", "value": "117.10 ± 4.88", "unit": "mm3"}, {"measurement": "Body Weight (g) (d30)", "setting": "[5]; d 30", "value": "19.16 ± 1.75", "unit": "g"}, {"measurement": "Tumor Volume (mm3) (d30)", "setting": "[5]; d 30", "value": "724.64 ± 285.14", "unit": "mm3"}]}]}
